Assay results published in ChEMBL document CHEMBL5465560, “Selectivity Literature for EUbOPEN Chemogenomic Library” (2024).

Key:
[1] = tested on: Tyrosine-protein kinase ABL1 (Homo sapiens), P00519 [T315I]; assay: Selectivity interaction (KinomeScan (DiscoverX)) EUB0001049a ABL1; conditions: at 1 µM
[2] = target: Serine/threonine-protein kinase Nek6 (Homo sapiens) (UniProt Q9HC98); assay: Selectivity interaction (KinomeScan (DiscoverX)) EUB0000666a NEK6; conditions: at 10 µM
[3] = target: T1, Dual specificity mitogen-activated protein kinase kinase 3 (Homo sapiens) (UniProt P46734); assay: Selectivity interaction (KinomeScan (DiscoverX)) EUB0000666a MAP2K3; conditions: at 10 µM
T1 sequence (whole entry): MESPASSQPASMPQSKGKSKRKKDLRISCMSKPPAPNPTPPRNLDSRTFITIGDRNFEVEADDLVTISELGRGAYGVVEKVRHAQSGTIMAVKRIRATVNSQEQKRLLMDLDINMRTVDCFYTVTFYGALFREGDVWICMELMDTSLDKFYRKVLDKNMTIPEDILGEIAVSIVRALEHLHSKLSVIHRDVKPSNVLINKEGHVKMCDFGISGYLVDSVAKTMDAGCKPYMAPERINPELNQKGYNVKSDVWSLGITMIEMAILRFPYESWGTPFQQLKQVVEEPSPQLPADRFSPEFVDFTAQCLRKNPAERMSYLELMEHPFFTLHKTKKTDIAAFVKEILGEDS

[4] = target: Phosphatidylinositol 3-kinase catalytic subunit type 3 (Homo sapiens, UniProt Q8NEB9); assay: Selectivity interaction (KinomeScan (DiscoverX)) EUB0001079a PIK3C3; conditions: at 1 µM
[5] = target: T2, Serine/threonine-protein kinase ULK3 (Homo sapiens) (UniProt Q6PHR2); assay: Selectivity interaction (Kinase panel (DSF assay)) EUB0001558a ULK3
T2 sequence (whole entry): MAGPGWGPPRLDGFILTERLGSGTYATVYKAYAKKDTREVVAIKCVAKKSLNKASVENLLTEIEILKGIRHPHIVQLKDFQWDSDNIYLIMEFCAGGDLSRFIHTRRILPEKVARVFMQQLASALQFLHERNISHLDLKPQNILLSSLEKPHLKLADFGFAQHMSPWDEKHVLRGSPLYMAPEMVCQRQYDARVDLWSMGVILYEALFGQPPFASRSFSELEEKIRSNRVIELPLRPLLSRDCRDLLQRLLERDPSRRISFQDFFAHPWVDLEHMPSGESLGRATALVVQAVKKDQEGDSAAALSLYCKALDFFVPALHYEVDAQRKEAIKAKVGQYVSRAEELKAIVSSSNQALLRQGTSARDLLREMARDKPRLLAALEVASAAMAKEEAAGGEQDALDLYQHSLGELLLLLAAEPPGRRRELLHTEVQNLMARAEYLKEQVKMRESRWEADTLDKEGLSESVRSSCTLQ

[6] = target: MAP kinase-activated protein kinase 3 (Homo sapiens) (UniProt Q16644); assay: Selectivity interaction (ActivX KiNativ screen (kinase selectivity in THP-1 cell lysates)) EUB0000639a MAPKAPK3; type: subcellular; conditions: lysate
[7] = target: T3, Cyclin-dependent kinase 11A (Homo sapiens) (UniProt Q9UQ88); assay: Selectivity interaction (ActivX KiNativ screen (kinase selectivity in THP-1 cell lysates)) EUB0000639a CDK11A; type: subcellular; conditions: lysate, at 0.04 µM
T3 sequence (whole entry): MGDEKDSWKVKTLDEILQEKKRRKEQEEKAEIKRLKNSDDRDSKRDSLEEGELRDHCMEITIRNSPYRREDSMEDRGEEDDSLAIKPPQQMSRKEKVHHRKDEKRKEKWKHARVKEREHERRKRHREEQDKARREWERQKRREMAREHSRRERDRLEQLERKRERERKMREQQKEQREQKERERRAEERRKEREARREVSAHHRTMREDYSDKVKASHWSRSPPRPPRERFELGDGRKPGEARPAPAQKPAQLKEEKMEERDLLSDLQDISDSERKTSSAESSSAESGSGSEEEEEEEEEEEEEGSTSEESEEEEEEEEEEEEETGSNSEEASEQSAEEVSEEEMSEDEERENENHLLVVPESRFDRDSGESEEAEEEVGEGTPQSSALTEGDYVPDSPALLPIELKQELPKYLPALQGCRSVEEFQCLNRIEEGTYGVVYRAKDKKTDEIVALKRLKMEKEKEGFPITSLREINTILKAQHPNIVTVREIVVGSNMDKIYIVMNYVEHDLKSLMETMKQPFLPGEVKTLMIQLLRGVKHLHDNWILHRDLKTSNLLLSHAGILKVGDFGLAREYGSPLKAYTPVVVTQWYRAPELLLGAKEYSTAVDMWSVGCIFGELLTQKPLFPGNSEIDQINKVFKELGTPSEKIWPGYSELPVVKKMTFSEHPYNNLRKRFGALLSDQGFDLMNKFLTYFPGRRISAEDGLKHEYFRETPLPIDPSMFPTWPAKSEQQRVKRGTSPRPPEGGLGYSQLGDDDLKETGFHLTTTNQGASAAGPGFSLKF

[8] = target: Cyclin-dependent kinase 2 (Homo sapiens, UniProt P24941); assay: Selectivity interaction (ActivX KiNativ screen (kinase selectivity in THP-1 cell lysates)) EUB0000639a CDK2; type: subcellular; conditions: lysate
[9] = target: RAF proto-oncogene serine/threonine-protein kinase (Homo sapiens) (UniProt P04049); assay: Selectivity interaction (KinomeScan (DiscoverX)) EUB0000045b RAF1
[10] = target: Phosphatidylinositol 4-phosphate 5-kinase type-1 alpha (Homo sapiens) (UniProt Q99755); assay: Selectivity interaction (KinomeScan (DiscoverX)) EUB0000618a PIP5K1A; conditions: at 10 µM
[11] = target: Serine/threonine-protein kinase NIM1 (Homo sapiens, UniProt Q8IY84)
[12] = target: Wee1-like protein kinase (Homo sapiens) (UniProt P30291); assay: Selectivity interaction (KinomeScan (DiscoverX)) EUB0001619a WEE1; conditions: at 1 µM
[13] = target: SRSF protein kinase 3 (Homo sapiens) (UniProt Q9UPE1); assay: Selectivity interaction (KinomeScan (DiscoverX)) EUB0001619a SRPK3; conditions: at 1 µM
[14] = target: Myosin light chain kinase 2, skeletal/cardiac muscle (Homo sapiens) (UniProt Q9H1R3); assay: Selectivity interaction (KinomeScan (DiscoverX)) EUB0000655a MYLK2; conditions: at 10 µM
[15] = target: Mitogen-activated protein kinase 14 (Homo sapiens, UniProt Q16539); assay: Selectivity interaction (KinomeScan (DiscoverX)) EUB0000607a MAPK14; conditions: at 10 µM
[16] = target: Voltage-dependent L-type calcium channel subunit alpha-1C (Homo sapiens, UniProt Q13936); assay: Selectivity interaction (Panel of non-epigenetic targets (kinases, GPCRs, ion channels, and transporters, Eurofins) ) EUB0000271b CACNA1C; conditions: at 1 µM

Chain of MAP kinase-activated protein kinase 3 (Homo sapiens) (Q16644 whole entry, looked up): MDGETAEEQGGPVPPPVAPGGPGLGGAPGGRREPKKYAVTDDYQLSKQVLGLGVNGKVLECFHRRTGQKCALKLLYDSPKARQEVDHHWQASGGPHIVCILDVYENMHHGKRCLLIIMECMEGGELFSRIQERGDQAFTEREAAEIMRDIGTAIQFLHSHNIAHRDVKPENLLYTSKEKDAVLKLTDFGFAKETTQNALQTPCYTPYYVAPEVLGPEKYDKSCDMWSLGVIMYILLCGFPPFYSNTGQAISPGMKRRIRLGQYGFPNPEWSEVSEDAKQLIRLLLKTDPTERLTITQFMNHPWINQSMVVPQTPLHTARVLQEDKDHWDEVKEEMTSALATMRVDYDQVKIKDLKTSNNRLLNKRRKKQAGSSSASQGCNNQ
Chain of RAF proto-oncogene serine/threonine-protein kinase (Homo sapiens) (P04049 whole entry): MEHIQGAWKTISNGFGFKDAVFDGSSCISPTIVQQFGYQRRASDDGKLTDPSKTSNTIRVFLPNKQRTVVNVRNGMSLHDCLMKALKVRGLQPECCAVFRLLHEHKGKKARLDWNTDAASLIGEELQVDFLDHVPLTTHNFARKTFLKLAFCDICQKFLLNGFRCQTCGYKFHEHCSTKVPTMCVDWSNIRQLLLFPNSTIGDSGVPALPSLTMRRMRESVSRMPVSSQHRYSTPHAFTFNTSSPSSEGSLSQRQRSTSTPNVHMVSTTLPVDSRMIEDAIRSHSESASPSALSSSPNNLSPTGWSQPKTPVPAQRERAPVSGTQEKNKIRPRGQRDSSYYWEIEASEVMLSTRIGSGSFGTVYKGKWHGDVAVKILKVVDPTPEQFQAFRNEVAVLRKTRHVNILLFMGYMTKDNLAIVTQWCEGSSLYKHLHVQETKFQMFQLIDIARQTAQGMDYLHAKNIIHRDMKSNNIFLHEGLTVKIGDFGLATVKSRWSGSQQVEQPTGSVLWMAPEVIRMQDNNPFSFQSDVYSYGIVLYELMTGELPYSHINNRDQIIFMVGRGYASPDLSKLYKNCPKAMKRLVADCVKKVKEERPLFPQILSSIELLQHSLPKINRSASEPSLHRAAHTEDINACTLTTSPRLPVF
Chain of SRSF protein kinase 3 (Homo sapiens) (Q9UPE1 whole entry): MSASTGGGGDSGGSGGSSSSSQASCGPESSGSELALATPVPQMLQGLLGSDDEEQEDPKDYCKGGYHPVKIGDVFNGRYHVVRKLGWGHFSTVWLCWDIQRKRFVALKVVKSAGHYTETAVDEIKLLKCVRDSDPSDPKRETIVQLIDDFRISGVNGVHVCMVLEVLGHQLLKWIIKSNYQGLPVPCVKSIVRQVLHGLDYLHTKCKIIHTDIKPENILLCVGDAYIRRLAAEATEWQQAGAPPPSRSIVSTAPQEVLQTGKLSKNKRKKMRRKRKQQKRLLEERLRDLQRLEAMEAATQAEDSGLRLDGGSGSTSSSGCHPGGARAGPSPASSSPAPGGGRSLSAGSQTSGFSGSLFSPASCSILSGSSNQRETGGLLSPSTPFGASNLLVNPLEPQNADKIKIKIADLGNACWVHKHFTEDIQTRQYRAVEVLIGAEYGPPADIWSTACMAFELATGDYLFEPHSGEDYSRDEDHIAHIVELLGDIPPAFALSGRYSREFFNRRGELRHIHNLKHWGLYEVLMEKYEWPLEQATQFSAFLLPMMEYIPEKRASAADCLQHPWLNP
Chain of Mitogen-activated protein kinase 14 (Q16539 whole entry): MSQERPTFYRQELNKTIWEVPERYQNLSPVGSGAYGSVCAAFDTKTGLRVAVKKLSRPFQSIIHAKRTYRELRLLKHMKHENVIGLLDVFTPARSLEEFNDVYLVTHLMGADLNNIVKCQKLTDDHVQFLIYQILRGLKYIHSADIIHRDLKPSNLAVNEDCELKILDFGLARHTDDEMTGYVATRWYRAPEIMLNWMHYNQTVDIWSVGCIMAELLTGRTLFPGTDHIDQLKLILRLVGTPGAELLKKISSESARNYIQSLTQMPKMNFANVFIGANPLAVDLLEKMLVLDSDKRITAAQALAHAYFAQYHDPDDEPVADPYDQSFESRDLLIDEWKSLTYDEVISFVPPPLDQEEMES
Chain of Wee1-like protein kinase (Homo sapiens) (P30291 whole entry, looked up): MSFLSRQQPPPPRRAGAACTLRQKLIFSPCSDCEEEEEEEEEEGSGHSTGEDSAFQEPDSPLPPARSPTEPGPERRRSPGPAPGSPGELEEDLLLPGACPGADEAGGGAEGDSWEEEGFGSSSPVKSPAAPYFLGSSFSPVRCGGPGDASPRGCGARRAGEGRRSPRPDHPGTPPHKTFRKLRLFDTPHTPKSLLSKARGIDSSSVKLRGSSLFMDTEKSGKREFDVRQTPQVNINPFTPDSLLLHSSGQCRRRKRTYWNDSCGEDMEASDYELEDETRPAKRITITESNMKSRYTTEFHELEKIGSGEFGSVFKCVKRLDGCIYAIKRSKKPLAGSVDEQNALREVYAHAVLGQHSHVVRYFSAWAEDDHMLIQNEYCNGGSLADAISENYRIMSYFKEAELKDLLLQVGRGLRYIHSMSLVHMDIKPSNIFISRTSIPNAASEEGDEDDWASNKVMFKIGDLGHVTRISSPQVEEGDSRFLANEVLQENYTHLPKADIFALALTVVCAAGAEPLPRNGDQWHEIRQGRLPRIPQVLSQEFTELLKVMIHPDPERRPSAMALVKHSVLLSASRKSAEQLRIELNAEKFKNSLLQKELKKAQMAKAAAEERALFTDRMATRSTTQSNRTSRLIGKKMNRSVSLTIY
Chain of Serine/threonine-protein kinase NIM1 (Q8IY84 whole entry): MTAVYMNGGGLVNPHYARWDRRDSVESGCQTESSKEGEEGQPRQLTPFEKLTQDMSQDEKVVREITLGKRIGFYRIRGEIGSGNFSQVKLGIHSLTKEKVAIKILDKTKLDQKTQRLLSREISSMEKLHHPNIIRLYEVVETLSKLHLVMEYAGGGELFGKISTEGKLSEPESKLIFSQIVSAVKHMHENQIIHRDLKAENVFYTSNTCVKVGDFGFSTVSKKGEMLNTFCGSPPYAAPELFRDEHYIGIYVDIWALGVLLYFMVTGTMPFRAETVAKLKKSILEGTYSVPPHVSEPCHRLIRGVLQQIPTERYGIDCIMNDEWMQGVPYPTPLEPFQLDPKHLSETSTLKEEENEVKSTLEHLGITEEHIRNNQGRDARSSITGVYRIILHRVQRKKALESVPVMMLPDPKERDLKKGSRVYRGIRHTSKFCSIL
Chain of Serine/threonine-protein kinase Nek6 (Homo sapiens) (Q9HC98 whole entry): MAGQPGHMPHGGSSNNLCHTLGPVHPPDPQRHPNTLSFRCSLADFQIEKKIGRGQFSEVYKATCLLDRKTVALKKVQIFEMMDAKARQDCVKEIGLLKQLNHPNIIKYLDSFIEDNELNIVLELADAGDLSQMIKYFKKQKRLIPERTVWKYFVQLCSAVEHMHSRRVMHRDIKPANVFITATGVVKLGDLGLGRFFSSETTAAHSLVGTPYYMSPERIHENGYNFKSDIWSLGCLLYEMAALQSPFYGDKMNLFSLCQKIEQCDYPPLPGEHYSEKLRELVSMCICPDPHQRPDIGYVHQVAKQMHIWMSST
Chain of Phosphatidylinositol 4-phosphate 5-kinase type-1 alpha (Homo sapiens) (Q99755 whole entry): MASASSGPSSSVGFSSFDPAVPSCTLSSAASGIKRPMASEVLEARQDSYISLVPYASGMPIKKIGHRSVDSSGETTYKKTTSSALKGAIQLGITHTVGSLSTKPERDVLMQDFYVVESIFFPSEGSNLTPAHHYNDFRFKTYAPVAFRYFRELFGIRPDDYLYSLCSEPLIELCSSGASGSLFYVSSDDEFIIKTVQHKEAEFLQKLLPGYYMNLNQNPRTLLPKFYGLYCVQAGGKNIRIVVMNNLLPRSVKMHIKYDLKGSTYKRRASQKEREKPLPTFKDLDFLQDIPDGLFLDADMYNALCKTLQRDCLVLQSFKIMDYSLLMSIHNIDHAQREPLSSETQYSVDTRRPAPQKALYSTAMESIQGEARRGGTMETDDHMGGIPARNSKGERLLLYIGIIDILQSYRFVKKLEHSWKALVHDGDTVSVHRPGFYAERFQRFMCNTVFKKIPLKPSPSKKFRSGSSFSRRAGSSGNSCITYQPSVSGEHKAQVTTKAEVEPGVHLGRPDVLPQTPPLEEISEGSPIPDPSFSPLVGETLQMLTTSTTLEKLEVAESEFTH
Chain of Phosphatidylinositol 3-kinase catalytic subunit type 3 (Q8NEB9 whole entry): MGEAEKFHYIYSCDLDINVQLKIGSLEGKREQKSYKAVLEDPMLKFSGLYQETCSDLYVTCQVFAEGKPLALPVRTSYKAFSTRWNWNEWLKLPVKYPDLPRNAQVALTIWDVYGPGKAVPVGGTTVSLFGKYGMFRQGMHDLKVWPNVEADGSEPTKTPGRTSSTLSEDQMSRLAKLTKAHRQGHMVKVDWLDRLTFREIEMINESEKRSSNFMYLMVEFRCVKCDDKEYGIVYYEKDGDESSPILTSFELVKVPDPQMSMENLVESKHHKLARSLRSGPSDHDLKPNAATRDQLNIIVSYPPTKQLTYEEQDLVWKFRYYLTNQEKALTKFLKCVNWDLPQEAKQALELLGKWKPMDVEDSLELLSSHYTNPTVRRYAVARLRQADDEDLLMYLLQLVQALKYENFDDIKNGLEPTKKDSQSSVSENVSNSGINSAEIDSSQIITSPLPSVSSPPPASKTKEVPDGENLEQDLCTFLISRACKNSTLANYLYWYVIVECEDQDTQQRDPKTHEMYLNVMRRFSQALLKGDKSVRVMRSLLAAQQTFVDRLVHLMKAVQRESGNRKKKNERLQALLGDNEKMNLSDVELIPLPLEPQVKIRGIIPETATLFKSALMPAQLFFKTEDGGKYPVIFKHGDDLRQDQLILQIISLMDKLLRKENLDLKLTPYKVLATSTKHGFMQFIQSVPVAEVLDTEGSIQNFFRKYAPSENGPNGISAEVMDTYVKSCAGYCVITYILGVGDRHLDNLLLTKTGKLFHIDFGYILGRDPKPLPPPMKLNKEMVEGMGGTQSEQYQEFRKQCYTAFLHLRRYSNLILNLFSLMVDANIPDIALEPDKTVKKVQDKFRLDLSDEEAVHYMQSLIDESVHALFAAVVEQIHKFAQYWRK

In the case of `COc1cc(Nc2nc(C)cc(-c3cnn4nc(OC)ccc34)n2)cc(C(F)(F)F)c1`, the % of control [1] is reported as 100%.
`O=C(NOC[C@H](O)CO)c1ccc(F)c(F)c1Nc1ccc(I)cc1F` was tested, and the % of control [2] was 100% and the % of control [3] was 89%.
For `Nc1cnc(N2CCc3cc(S(=O)(=O)Nc4c(F)cc(Cl)cc4F)cc(N4CCCC4=O)c32)nc1` [TP-020n], the % of control [4] was 100%.
Molecule `CC(C)(O)[C@H](F)CN1Cc2cc(NC(=O)c3cnn4cccnc34)c(N3CCOCC3)cc2C1=O` has a dTM [5] of 6.3 K.
With `CC[C@@H]1[C@H](F)C(=O)N[C@@H]1COc1nccc2cc(C(N)=O)c(OC)cc12` [ZIMLOVISERTIB] the % of inhibition ([6]; at 0.01 µM) was 3.3%, the % of inhibition ([6]; at 0.04 µM) was 10.6% and the % of inhibition ([6]; at 0.2 µM) was 6.9%. For the same molecule, the % of inhibition ([6]; at 1 µM) was -0.7%, the % of inhibition ([6]; at 5 µM) was 4.9% and the % of inhibition [7] was 6.9%. For the same molecule, the % of inhibition ([8]; at 0.01 µM) was 1.9%, the % of inhibition ([8]; at 0.04 µM) was -4% and the % of inhibition ([8]; at 0.2 µM) was 12.3%. The % of inhibition ([8]; at 1 µM) was -8.5% and the % of inhibition ([8]; at 5 µM) was 6.3%.
`C=CC(=O)Nc1cc(-n2c(=O)ccc3cnc4ccc(-c5ccc(NS(C)(=O)=O)cc5)cc4c32)ccc1C` showed a % of control ([9]; at 1 µM) of 100% and a % of control ([9]; at 10 µM) of 100%.
In the case of `O[C@H]1CC[C@H](Nc2ncc3nc(Nc4c(F)cc(F)cc4F)n([C@H]4CCOC4)c3n2)CC1`, the % of control [10] is reported as 93%.
Molecule `CCc1cccc(CC)c1NC(=O)c1nn(C)c2c1CCc1cnc(Nc3ccc(C(=O)NC4CCN(C)CC4)cc3OC(F)(F)F)nc1-2` has an IC50 [11] of over 10 µM.
In the case of `N#Cc1cccc(-c2c[nH]c3ncnc(N4CCOCC4)c23)c1`, the % of control [12] is reported as 100% and the % of control [13] is reported as 27%.
Work on `CN(C)CCOc1ccc(-c2nc(-c3ccncc3)c(-c3ccc4c(c3)CC/C4=N\O)[nH]2)cc1` yielded a % of control [14] of 100%.
With `CNC(=O)Nc1ccc(-c2nc(N3CC4CCC(C3)O4)c3cnn(C4CCC5(CC4)OCCO5)c3n2)cc1` the % of control [15] was 100%.
`Cc1cc(C)cc([C@@H]2c3cc(C)ccc3NC(=O)CN2C(=O)c2ccc(Br)s2)c1` was tested, and the “% of inhibition” value [16] was -8%.
